Measured values from patent publication US20230071441A1, “CIGARETTE FILTER CONTAINING NATURAL PLANT MATERIAL, PREPARATION METHOD THEREOF, AND CIGARETTE INCLUDING THE FILTER” (KT & G Corporation, priority 2019, published 2023).

Key:
[1] = Methyl mercaptan reducing ability (deodorizing activity), headspace GC/MS; conditions: methyl mercaptan 1 μg/ml 2 ml, pH 7.5, 42 degrees C. 6 minutes; powders/granules 10 mg in 2 ml water; oil/flavoring liquid 2 ml; single ingredient 3 ppm
Protocol: Using the cigarette prepared in Example 24-1, an experiment was conducted to identify reducing ability for the methyl mercaptan as a representative halitosis ingredient in the cigarette smoke.
Pine needle and rosemary based powders, granules, oils, and flavoring liquid, as well as pine needle based fragrance carrying ingredients, that is, alpha-pinene, bonyl acetate, and rosemary based fragrance carrying ingredients, that is, 1,8-cineol, and borneol were added to the cigarette filter. Thus, a cigarette including the cigarette filter was prepared to identify methyl mercaptan reducing ability.
A content of methyl mercaptan as used was 1 ppm [1 μg/ml] 2 ml. When the pine needle and rosemary based powders and granules were used, 10 mg of the sample was extracted with 2 ml of water and was used. In one example, when using the oil and flavoring liquid based on pine needle and rosemary, 2 ml thereof was used. As for a single ingredient, 3 ppm (3 μg/ml) of the sample was extracted with 2 ml of water and was used.
The analysis experiment of reducing ability for methyl mercaptan included a pretreatment process of the sample, and the analysis process under the headspace sampler condition and the GC/MS-SIM condition. First, 10 mg of pine needle and rosemary based powders and granules sample were put into a 20 ml vial, which was immersed in 2 ml of water for 1 hour. Next, 2 ml of 0.2 M potassium phosphate was added thereto and the pH was adjusted to 7.5. Thereafter, 2 ml of methyl mercaptan (1 μg/ml) was added thereto and the vial was sealed, followed by stirring with a Vortex mixer for 5 seconds. In the headspace sampler, reaction occurred at 42 degrees C. for 6 minutes, and methyl mercaptan isolated into headspace was directly analyzed via GC/MS. An area of methyl mercaptan obtained as a result of the GC/MS analysis was compared with that of the control to determine the reduction percentage.
Deodorizing Activity (DA, %)=[C−S]/C×100 • C: methyl mercaptan area of control • S: Methyl mercaptan area of test group • See Tokita, F. et al. Nippon Nogeikagaku Kaishi 58(6), p 585 to 589 [1984].
The GC/MS instrument based analysis conditions were set as follows. Headspace Sampler conditions were set as follows: culture temperature: 42 degrees C., culture duration: 6 minutes, and transfer liner temperature: 100 degrees C.
The GC/MS-SIM conditions were set as follows: DB-624(60 m, 0.25 mm, 0.25 um) column was used; Oven Temp: 35 degrees C. for 10 minutes; post run: 250 degrees C. for 30 minutes. Injector/Interface Temp was 150 degrees C. or 220 degrees C. For injection, Split 10:1, flow rate 1 ml/min, methyl mercaptan ion (m/z): quantitative ion 47; and qualitative ion 48 and 45. […]

[2] = test system: halitosis ingredient (Hydrogen sulfide) derived from oral microbes; test: Sedimentation of halitosis ingredient by absorbance analysis (FeS, 700 nm) in cultured saliva; type: cell-based, oral bacteria in saliva; conditions: cultured saliva 0.5 ml, FeSO4, 24 hours 37 degrees C. anaerobic, absorbance 700 nm
Protocol: Using the cigarette prepared in Example 24-1, the sedimentation of halitosis ingredient thereof was measured via absorbance analysis. To this end, an experiment was conducted to identify the reducing ability for the halitosis ingredient derived from oral microbes when smoking the cigarette with the filter having the pine needle and rosemary based substances added thereto.
The experiment for measuring the sedimentation of halitosis ingredients was as follows. Hydrogen sulfide in a volatile sulfur compound as mouth odor ingredient generated when cultivating oral bacteria in saliva was combined with iron in a liquid state such that iron sulfide (FeS) in a form of a black precipitate occurred. Thus, the sedimentation of halitosis ingredient was analyzed. First, whole saliva was incubated for 48 hours at 37 degrees C. under anaerobic conditions. Then, […] of oil based test substance or 20 μl of a single ingredient was added to 0.5 ml cultured saliva. 0.05 g surfactant was added thereto. The salvia was mixed with 0.05 g ferrous sulfate II (FeSO4). The mixture was incubated for 24 hours at 37 degrees C. under anaerobic conditions. Thus, absorbance of the culture was measured at 700 nm to determine sedimentation of halitosis ingredients.
However, there was a limit in the detection in the direct analysis of cigarette due to the difference in smoking amount.

Row | SMILES | Methyl mercaptan Reducing ability (%) [1] [%] | Halitosis ingredient (Hydrogen sulfide) Reducing ability (%) [2] [%]
1 | CC1(C)C2CCC1(C)C(O)C2 (centres unmarked) [Borneol] | 30.7 | 45.0
2 | CC12CCC(CC1)C(C)(C)O2 [1,8-Cineol] | 51.9 | 37.0
3 | CC1=CCC2CC1C2(C)C (stereo not drawn) [α-Pinene] | 54.7 | 50.0
4 | CC(=O)O[C@@H]1C[C@@H]2CC[C@@]1(C)C2(C)C [Bonyl acetate] | 41.7 | 36.0
